What was measured:
wild buckwheat [1] = test: Test E wild buckwheat; type: in vivo, Polygonum convolvulus; details: Postemergence
Description: (§1) Compounds evaluated in this test were formulated in a non-phytotoxic solvent mixture which included a surfactant and applied to plants that were in the 1- to 4-leaf stage (postemergence application). A mixture of sandy loam soil and greenhouse potting mix in a 60:40 ratio was used for the postemergence test.
(§2) Plantings of these crops and weed species were adjusted to produce plants of appropriate size for the postemergence test. All plant species were grown using normal greenhouse practices. Crop and weed species include annual bluegrass (Poa annua), blackgrass (Alopecurus myosuroides), black nightshade (Solanum nigra), chickweed (Stellaria media), common poppy (Papaver rhoeas), deadnettle (Lamium amplexicaule), downy brome (Bromus tectorum), field violet (Viola arvensis), galium (Galium aparine), green foxtail (Setaria viridis), Italian ryegrass (Lolium multiflorum), jointed goatgrass (Aegilops cylindrica), kochia (Kochia scoparia), lambsquarters (Chenopodium album), littleseed canarygrass (Phalaris minor), rape (Brassica napus), redroot pigweed (Amaranthus retroflexus), Russian thistle (Salsola kali), scentless chamomile (Matricaria inodora), spring barley (Hordeum vulgare), sugar beet (Beta vulgaris), sunflower (Helianthus annuus), ivyleaf speedwell (Veronica hederaefolia), spring wheat (Triticum aestivum), winter wheat (Triticum aestivum), wild buckwheat (Polygonum convolvulus), wild mustard (Sinapis arvensis), wild oat (Avena fatua), windgrass (Apera spica-venti) and winter barley (Hordeum vulgare).
(§3) Treated plants and untreated controls were maintained in a greenhouse for approximately 21 to 28 days, after which all treated plants were compared to untreated controls and visually evaluated. […] A dash response (-) means no test result.

wild mustard = test: Test E wild mustard; type: in vivo, Sinapis arvensis; details: Preemergence
wild buckwheat [2] = test: Test E wild buckwheat; type: in vivo, Polygonum convolvulus; details: Preemergence
ivyleaf speedwell = test: Test E postemergence ivyleaf speedwell; type: in vivo, Veronica hederaefolia
Description: as §1, §2, §3

jointed goatgrass = test: Test E jointed goatgrass; type: in vivo, Aegilops cylindrica; details: Preemergence
field violet = test: Test E field violet; type: in vivo, Viola arvensis; details: Preemergence
redroot pigweed = test: Test E redroot pigweed; type: in vivo, Amaranthus retroflexus; details: Postemergence
Description: as §1, §2, §3

spring wheat = test: Test E spring wheat; type: in vivo, Triticum aestivum; details: Preemergence
galium = test: Test E galium; type: in vivo, Galium aparine; details: Postemergence
Description: […] A mixture of sandy loam soil and greenhouse potting mix in a 60:40 ratio was used for the postemergence test.
as §2, §3

kochia = test: Test E kochia; type: in vivo, Kochia scoparia; details: Preemergence
downy brome = test: Test E downy brome; type: in vivo, Bromus tectorum; details: Postemergence; for Plant response rating, Downy brome: 0 to 100 scale
Summary of the method: (§4)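 Greenhouse test: compounds in non-phytotoxic solvent with surfactant; for postemergence, sprayed on plants at 1- to 4-leaf stage grown in 60:40 sandy loam/potting mix. Injury rated visually against untreated controls after about 21 to 28 days.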

rape = test: Test E rape; type: in vivo, Brassica napus; details: Postemergence
Summary of the method: as §4

field bindweed = test: Test C postemergence field bindweed; type: in vivo, Convolvulus arvensis; details: 0 to 100 scale, 0 no effect, 100 complete control
Description: as §1, with “grown for various periods of time before treatment” for “in the 1- to 4-leaf stage”
(§5) Plantings of these crops and weed species were adjusted to produce plants of appropriate size for the postemergence test. All plant species were grown using normal greenhouse practices. Crop and weed species include arrowleaf sida (Sida rhombifolia), barnyardgrass (Echinochloa crus-galli), cocklebur (Xanthium strumarium), common ragweed (Ambrosia elatior), corn (Zea mays), cotton (Gossypium hirsutum), eastern black nightshade (Solanum ptycanthum), fall panicum (Panicum dichotomiflorum), field bindweed (Convolvulus arvensis), giant foxtail (Setaria faberii), hairy beggarticks (Bidens pilosa), ivyleaf morningglory (Ipomoea hederacea), johnsongrass (Sorghum halepense), ladysthumb smartweed (Polygonum persicaria), lambsquarters (Chenopodium album), large crabgrass (Digitaria sanguinalis), purple nutsedge (Cyperus rotundus), redroot pigweed (Amaranthus retroflexus), soybean (Glycine max), surinam grass (Brachiaria decumbens), velvetleaf (Abutilon theophrasti) and wild poinsettia (Euphorbia heterophylla).
(§6) Treated plants and untreated controls were maintained in a greenhouse for approximately 14, to 21 days, after which all treated plants were compared to untreated controls and visually evaluated. Plant response ratings, summarized in Table C, were based upon a 0 to 100 scale where 0 was no effect and 100 was complete control. A dash response (−) means no test result.

cotton = test: Test C postemergence cotton; type: in vivo, Gossypium hirsutum; details: 0 to 100 scale, 0 no effect, 100 complete control
Description: as §1, with “grown for various periods of time before treatment” for “in the 1- to 4-leaf stage”
as §5, §6

corn = test: Test C postemergence corn; type: in vivo, Zea mays; details: 0 to 100 scale, 0 no effect, 100 complete control
Summary of the method: (§7)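 Greenhouse postemergence test: compound applied in solvent/surfactant formulation to established plants; visual scoring 0–100 against untreated controls after roughly two to three weeks (14–21 days).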

velvetleaf = test: Test C postemergence velvetleaf; type: in vivo, Abutilon theophrasti; details: 0 to 100 scale, 0 no effect, 100 complete control
Summary of the method: as §7

arrowleaf sida = test: Test C postemergence arrowleaf sida; type: in vivo, Sida rhombifolia; details: 0 to 100 scale, 0 no effect, 100 complete control
Summary of the method: as §7

[3] = Rate 250 g/ha, 0 to 100 scale (0 no effect, 100 complete control)
[4] = Rate 500 g/ha, 0 to 100 scale, 0 no effect, 100 complete control
[5] = Rate 125 g/ha, 0 to 100 scale (0 no effect, 100 complete control)
[6] = Rate 500 g/ha, 0 to 100 scale where 0 is no effect and 100 is complete control
[7] = Rate 500 g/ha, 0 no effect, 100 complete control
[8] = Rate 250 g/ha, 0 to 100 scale where 0 is no effect and 100 is complete control

CC(C)N(C(=O)n1oc(=O)n(C(C)C)c1=O)c1ccc(Cl)cc1 [Compound 114]
Plant response rating, Wild buckwheat (wild buckwheat [1]; Rate 125 g/ha, 0 to 100 scale): 20
Plant response rating, Wild buckwheat (wild buckwheat [1]; [3]): 30
Plant response rating, Wild buckwheat (wild buckwheat [1]; [4]): 30
Plant response rating, Wild mustard (wild mustard; [5]): 50
Plant response rating, Wild mustard (wild mustard; Rate 250 g/ha, 0 to 100 scale): 40
Plant response rating, Wild mustard (wild mustard; [6]): 90
Plant response rating, Wild buckwheat (wild buckwheat [2]; [5]): 20
Plant response rating, Wild buckwheat (wild buckwheat [2]; Rate 250 g/ha, 0 to 100 scale): 50
Plant response rating, Wild buckwheat (wild buckwheat [2]; [6]): 80
Plant response rating, Veronica hedera (ivyleaf speedwell; Rate 125 g/ha, 0 to 100 scale): 10
Plant response rating, Veronica hedera (ivyleaf speedwell; [3]): 50
Plant response rating, Veronica hedera (ivyleaf speedwell; [4]): 70
Plant response rating, Jointed goatgra (jointed goatgrass; [5]): 20
Plant response rating, Jointed goatgra (jointed goatgrass; Rate 250 g/ha, 0 to 100 scale): 65
Plant response rating, Jointed goatgra (jointed goatgrass; [6]): 50
Plant response rating, Field violet (field violet; [5]): 0
Plant response rating, Field violet (field violet; Rate 250 g/ha, 0 to 100 scale): 0
Plant response rating, Field violet (field violet; [6]): 10
Plant response rating, Redroot pigweed (redroot pigweed; Rate 125 g/ha, 0 to 100 scale): 15
Plant response rating, Redroot pigweed (redroot pigweed; [3]): 10
Plant response rating, Redroot pigweed (redroot pigweed; [4]): 20
Plant response rating, Spring Wheat (spring wheat; [5]): 0
Plant response rating, Spring Wheat (spring wheat; Rate 250 g/ha, 0 to 100 scale): 10
Plant response rating, Spring Wheat (spring wheat; [6]): 20
Plant response rating, Galium (galium; Rate 125 g/ha, 0 to 100 scale): 10
Plant response rating, Galium (galium; [3]): 50
Plant response rating, Galium (galium; [4]): 85
Plant response rating, Kochia (kochia; [5]): 25
Plant response rating, Kochia (kochia; Rate 250 g/ha, 0 to 100 scale): 30
Plant response rating, Kochia (kochia; [6]): 30
Plant response rating, Downy brome (downy brome; Rate 125 g/ha): 0
Plant response rating, Downy brortie (downy brome; [3]): 0
Plant response rating, Downy brome (downy brome; [7]): 30
Plant response rating, Rape (rape; Rate 125 g/ha, 0 to 100 scale): 55
Plant response rating, Rape (rape; [3]): 50
Plant response rating, Rape (rape; [4]): 55

CCn1c(=O)on(C(=O)N(c2ccccc2)C(C)C)c1=O [Compound 117]
Plant response rating Field bindweed (field bindweed; Rate 140 g/ha): 0
Plant response rating Field bindweed (field bindweed; Rate 280 g/ha): 30
Plant response rating Field bindweed (field bindweed; Rate 560 g/ha): 30
Plant response rating Field bindweed (field bindweed; Rate 1120 g/ha): 40
Plant response rating Cotton (cotton; Rate 140 g/ha): 5
Plant response rating Cotton (cotton; Rate 280 g/ha): 10
Plant response rating Cotton (cotton; Rate 560 g/ha): 30
Plant response rating Cotton (cotton; Rate 1120 g/ha): 60
Plant response rating, Corn (corn; Rate 140 g/ha): 0
Plant response rating, Corn (corn; Rate 280 g/ha): 0
Plant response rating, Corn (corn; Rate 560 g/ha): 40
Plant response rating, Corn (corn; Rate 1120 g/ha): 85
Plant response rating, Velvetleaf (velvetleaf; Rate 140 g/ha): 0
Plant response rating, Velvetleaf (velvetleaf; Rate 560 g/ha): 20
Plant response rating, Velvetleaf (velvetleaf; Rate 1120 g/ha): 60
Plant response rating Arrowleaf sida (arrowleaf sida; Rate 140 g/ha): 0
Plant response rating Arrowleaf sida (arrowleaf sida; Rate 280 g/ha): 0
Plant response rating Arrowleaf sida (arrowleaf sida; Rate 560 g/ha): 0
Plant response rating Arrowleaf sida (arrowleaf sida; Rate 1120 g/ha): 50

CC(C)N(C(=O)n1oc(=O)n(C(C)C)c1=O)c1ccc(F)cc1 [Compound 131]
Plant response rating, Wild buckwheat (wild buckwheat [1]; Rate 62 g/ha, 0 to 100 scale): 50
Plant response rating, Wild buckwheat (wild buckwheat [1]; Rate 125 g/ha, 0 to 100 scale): 0
Plant response rating, Wild buckwheat (wild buckwheat [1]; [4]): 0
Wild buckwheat plant response rating (wild buckwheat [1]; [8]): 0
Plant response rating, Wild mustard (wild mustard; [5]): 60
Wild mustard plant response rating (0 to 100 scale) (wild mustard; Rate 250 g/ha): 100
Plant response rating, Wild mustard (wild mustard; [6]): 100
Plant response rating, Wild buckwheat (wild buckwheat [2]; [5]): 30
Wild buckwheat plant response rating (0 to 100 scale) (wild buckwheat [2]; Rate 250 g/ha): 70
Plant response rating, Wild buckwheat (wild buckwheat [2]; [6]): 100
Plant response rating, Veronica hedera (ivyleaf speedwell; Rate 125 g/ha, 0 to 100 scale): 0
Veronica hedera plant response rating (ivyleaf speedwell; [8]): 0
Plant response rating, Veronica hedera (ivyleaf speedwell; [4]): 20
Plant response rating, Jointed goatgra (jointed goatgrass; [5]): 50
Jointed goatgra plant response rating (0 to 100 scale) (jointed goatgrass; Rate 250 g/ha): 70
Plant response rating, Jointed goatgra (jointed goatgrass; [6]): 95
Plant response rating, Field violet (field violet; [5]): 20
Field violet plant response rating (0 to 100 scale) (field violet; Rate 250 g/ha): 20
Plant response rating, Field violet (field violet; [6]): 40
Plant response rating Field bindweed (field bindweed; Rate 140 g/ha): 0
Plant response rating Field bindweed (field bindweed; Rate 280 g/ha): 0
Plant response rating Field bindweed (field bindweed; Rate 560 g/ha): 0
Plant response rating Field bindweed (field bindweed; Rate 1120 g/ha): 60
Plant response rating, Redroot pigweed (redroot pigweed; Rate 62 g/ha, 0 to 100 scale): 5
Plant response rating, Redroot pigweed (redroot pigweed; Rate 125 g/ha, 0 to 100 scale): 0
Plant response rating, Redroot pigweed (redroot pigweed; [4]): 0
Redroot pigweed plant response rating (redroot pigweed; [8]): 0
Plant response rating, Spring Wheat (spring wheat; [5]): 70
Spring Wheat plant response rating (0 to 100 scale) (spring wheat; Rate 250 g/ha): 100
Plant response rating, Spring Wheat (spring wheat; [6]): 100
Plant response rating, Galium (galium; Rate 62 g/ha, 0 to 100 scale): 50
Plant response rating, Galium (galium; Rate 125 g/ha, 0 to 100 scale): 10
Plant response rating, Galium (galium; [4]): 50
Galium plant response rating (galium; [8]): 0
Plant response rating Cotton (cotton; Rate 140 g/ha): 10
Plant response rating Cotton (cotton; Rate 280 g/ha): 10
Plant response rating Cotton (cotton; Rate 560 g/ha): 40
Plant response rating Cotton (cotton; Rate 1120 g/ha): 65
Plant response rating, Kochia (kochia; [5]): 0
Kochia plant response rating (0 to 100 scale) (kochia; Rate 250 g/ha): 10
Plant response rating, Kochia (kochia; [6]): 100
Plant response rating, Corn (corn; Rate 140 g/ha): 0
Plant response rating, Corn (corn; Rate 280 g/ha): 0
Plant response rating, Corn (corn; Rate 560 g/ha): 5
Plant response rating, Corn (corn; Rate 1120 g/ha): 40
Plant response rating, Downy brome (downy brome; Rate 62 g/ha): 55
Plant response rating, Downy brome (downy brome; Rate 125 g/ha): 0
Plant response rating, Downy brome (downy brome; [7]): 70
Downy brome plant response rating (downy brome; [8]): 50
Plant response rating, Rape (rape; Rate 62 g/ha, 0 to 100 scale): 10
Plant response rating, Rape (rape; Rate 125 g/ha, 0 to 100 scale): 0
Plant response rating, Rape (rape; [4]): 0
Rape plant response rating (rape; [8]): 0
Plant response rating, Velvetleaf (velvetleaf; Rate 140 g/ha): 0
Plant response rating, Velvetleaf (velvetleaf; Rate 280 g/ha): 0
Plant response rating, Velvetleaf (velvetleaf; Rate 560 g/ha): 10
Plant response rating, Velvetleaf (velvetleaf; Rate 1120 g/ha): 70
Plant response rating Arrowleaf sida (arrowleaf sida; Rate 280 g/ha): 10
Plant response rating Arrowleaf sida (arrowleaf sida; Rate 560 g/ha): 30
Plant response rating Arrowleaf sida (arrowleaf sida; Rate 1120 g/ha): 60

Source: US6737383B1, “Herbicidal oxadiazolidines” (priority 1999, dated 2004)
